We go through six molecules from patent US4065461A, “Amino containing pyridyloxy propanols” (Aktieselskabet Grindstedvaerket, priority 1975, dated 1977).

Like-named read-outs stand apart in the source and are kept apart here.

Data set [1] concerns the target T1, β1 -receptors (Felis catus, UniProt Q9TST6).
T1 construct: The test animals were adult cats of either sex; from tissue; host or cells: heart of anaesthetized cat, in vivo
The data set can be described thus: β1-adrenoreceptor blockade: antagonism of isoprenaline-induced changes in heart rate in anaesthetized cats. In kind it is in vivo. The note with it: for ED50: cat, read-out: Approximate ED50 value for β1 -receptor blockade; for potency as antagonist of the β1 -receptors relative to propranolol: compared with propranolol, Table I; for activity as antagonist of the β1 -receptors, in words: conclusion from Table I. The source says: (§1) The examinations thus comprise selective effect against isoprenaline-induced changes in heart rate, which are presumed to be elicited by stimulation of β1 -receptors; and against the reduction in tone in the peripheral vasculature induced by the said agonist is presumed to be due to stimulation of β2 -receptors.
(§2) The test animals were adult cats of either sex.
(§3) The heart rate was derived electronically from the blood pressure in the right carotid artery, and the reduction in tone in the peripheral vasculature was determined by recording changes in hind quarter vascular resistance.
(§4) Each cat was dosed repeatedly at 15 minutes' intervals throughout the experiment with 1 μg isoprenaline as the hydrochloride, the dose of this and the other standard drugs being stated in terms of the base. When constant responses of both heart rate and hind quarter perfusion pressure were obtained, a dose of 4 μg/kg of one of the test compounds was administered intraveneously 2 minutes before the isoprenaline dose. This initial dose of the test compound was administered again 15 minutes later. Thereafter, the test compound was administered at 15 minutes' intervals, each successive dose being twice the preceeding dose, the injection always being given two minutes prior to the next isoprenaline dose. […] In this way, cumulative dose-response curves for the effects of each test compound could be calculated and approximately ED50 values obtained.

The subject of data set [2] is β1 -receptors. Described as above. In kind it is in vivo. Particulars: for ratio between these two activities (ED50 β2 / ED50 β1): anaesthetized cats, intravenous, Table I; for selectivity for β1 -receptors versus β2 -receptors, in words: conclusion from Table I.
Text: as §1, §2, §3, §4

In a further data set the target is T2, β2 -receptors (Felis catus, UniProt Q9TST5).
T2 construct: The test animals were adult cats of either sex; from tissue; host or cells: hind quarter vasculature of anaesthetized cat, in vivo
The data set can be described thus: β2-adrenoreceptor blockade: antagonism of isoprenaline-induced reduction in tone in the peripheral vasculature (hind quarter perfusion pressure) in anaesthetized cats. Type of data set: in vivo. The note with it: cat, read-out: Approximate ED50 value for β2 -receptor blockade.
Text: as §1, §2, §3, §4

The next data set deals with mice. The note with it: for toxicity, in words: conclusion from Table II.
The next data set is described as follows: in vivo. The note with it: mouse, iv.
The test system of data set [3] is β1 -receptors and β2 -receptors. Particulars: background; cited from earlier work.
Where [4] appears, read: anaesthetized cats, intravenous, cumulative doses, isoprenaline-induced change in heart rate.
[5] abbreviates: anaesthetized cats, intravenous, cumulative doses, isoprenaline-induced change in hind quarter perfusion pressure.

T2 sequence (Q9TST5 whole entry): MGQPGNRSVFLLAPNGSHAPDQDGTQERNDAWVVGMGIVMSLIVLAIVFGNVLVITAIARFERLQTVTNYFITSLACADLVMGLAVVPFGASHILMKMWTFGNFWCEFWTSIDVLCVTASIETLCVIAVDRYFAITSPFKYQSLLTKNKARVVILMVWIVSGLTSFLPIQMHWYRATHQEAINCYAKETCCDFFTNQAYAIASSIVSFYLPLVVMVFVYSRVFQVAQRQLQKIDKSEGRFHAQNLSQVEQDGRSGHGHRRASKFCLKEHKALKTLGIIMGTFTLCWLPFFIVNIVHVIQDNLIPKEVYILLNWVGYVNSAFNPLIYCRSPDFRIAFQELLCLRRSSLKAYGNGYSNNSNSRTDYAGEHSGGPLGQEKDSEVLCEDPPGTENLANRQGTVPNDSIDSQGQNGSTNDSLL
T1 sequence (Q9TST6 whole entry): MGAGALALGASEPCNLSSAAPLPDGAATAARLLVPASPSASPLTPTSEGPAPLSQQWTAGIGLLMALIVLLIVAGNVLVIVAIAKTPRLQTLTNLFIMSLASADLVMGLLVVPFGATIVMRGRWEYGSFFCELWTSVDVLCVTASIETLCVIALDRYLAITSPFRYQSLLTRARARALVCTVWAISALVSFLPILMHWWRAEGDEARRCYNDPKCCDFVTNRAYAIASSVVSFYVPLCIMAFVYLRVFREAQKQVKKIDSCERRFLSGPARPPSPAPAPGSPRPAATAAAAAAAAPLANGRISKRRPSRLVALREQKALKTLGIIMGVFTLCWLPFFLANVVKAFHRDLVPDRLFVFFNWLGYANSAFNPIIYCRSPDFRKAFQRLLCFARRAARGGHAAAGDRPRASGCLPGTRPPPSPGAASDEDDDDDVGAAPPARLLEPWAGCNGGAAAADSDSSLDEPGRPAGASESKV

By ED50 is commonly meant the dose that gives a 50% effect, or the effect in half of the subjects. As a reminder, the LD50 is the dose expected to kill half of the subjects tested. `CC(C)NCC(O)COc1cccnc1N` (centres unmarked) [Compound 2, 1-Isopropylamino-3-[(2-amino-3-pyridyl)oxy]-2-propanol]: the ED50 at β1 -receptors [1] (setting [4]) worked out at 0.08 mg/kg; on β2 -receptors (setting [5]) it was 3.5 mg/kg. Further, the “potency as antagonist of the β1 -receptors relative to propranolol” value (“potency … -receptors relative to propranolol” below) on β1 -receptors [1] is on record as “approximately equal to”. Moreover, the “ratio between these two activities (ED50 β2 / ED50 β1)” value in the data set with β1 -receptors [2] was 43.8. Moreover, the “selectivity for β1 -receptors versus β2 -receptors, in words” value (“selectivity for β1 -receptors versus β2” below) with β1 -receptors [2] is reported as “high degree of selectivity”. Moreover, in the data set on mice (intravenous, mice), the “toxicity, in words” value is listed as “somewhat less toxic”. Further, the LD50 was 192.0 mg/kg in the data set on mice (mouse, in vivo, iv) and 203 mg/kg in “in vivo”.
Take `CC(C)NCC(O)COc1cccnc1` (centres unmarked) [Compound 1, 1-Isopropylamino-3-(3-pyridyloxy)-2-propanol]: the ED50 at β1 -receptors [1] (iv) came to 0.007 mg/kg. Further, on β1 -receptors [1], the “potency … -receptors relative to propranolol” value is “greater than” and the “activity as antagonist of the β1 -receptors, in words” value is “extremely active”. In the data set with β1 -receptors [2], the “ratio between these two activities (ED50 β2 / ED50 β1)” value amounted to 207.1 and the “selectivity for β1 -receptors versus β2” value is “outstanding selectivity as β1 -adrenoblocking agent”. Further, the ED50 at β2 -receptors (iv) stood at 1.45 mg/kg. Besides, in the data set with mice (intravenous, mice), the “toxicity, in words” value is recorded as “low toxicity”. Further, the LD50 in the data set on mice (mice, female, intravenous) came to 285.2 mg/kg. Further, in the data set “in vivo”, the LD50 is 261 mg/kg.
On to `CC(=O)Nc1ccc(OCC(O)CNC(C)C)cc1` (centres unmarked) [Compound 3, practolol], for which the ED50 at β1 -receptors [1] (setting [4]) was 0.36 mg/kg; on β2 -receptors (setting [5]) it was 10.4 mg/kg. The “potency … -receptors relative to propranolol” value at β1 -receptors [1] is given as “much less active than propranolol”. Moreover, the “ratio between these two activities (ED50 β2 / ED50 β1)” value with β1 -receptors [2] is given as 28.9. The “selectivity for β1 -receptors versus β2” value with β1 -receptors [2] is listed as “approximately thirty times more selectivity against the β1 -receptors than against β2 -receptors”. Besides, the LD50 was determined as 31.6 mg/kg in the data set on mice (mouse, in vivo, iv) and 41.6 mg/kg in the data set “in vivo”. In addition, the “receptor blocking profile, in words” value in data set [3] is “substantial blocking activity on the β1 -receptors and not on the β2 -receptors”.
With `CC(C)NCC(O)COc1cccnc1Cl` (centres unmarked) [Compound 6], the ED50 worked out at 0.03 mg/kg on β1 -receptors [1] (iv) and 1.35 mg/kg at β2 -receptors (iv). Also, the “ratio between these two activities (ED50 β2 / ED50 β1)” value in the data set with β1 -receptors [2] is listed as 45.0. The LD50 was found to be 180.2 mg/kg in the data set on mice (mice, female, intravenous) and 165 mg/kg in the data set “in vivo”.
With `Cc1ccc(OCC(O)CNC(C)C)cn1` (centres unmarked) [Compound 5], the ED50 on β1 -receptors [1] (iv) was 0.7 mg/kg; at β2 -receptors (iv), above 4.1 mg/kg. Moreover, the “activity as antagonist of the β1 -receptors, in words” value on β1 -receptors [1] was “not very active”. In addition, in the data set with β1 -receptors [2], the “ratio between these two activities (ED50 β2 / ED50 β1)” value is on record as above 5.8. In the data set with β1 -receptors [2], the “selectivity for β1 -receptors versus β2” value is given as “rather low degree of selectivity”. Also, the LD50 in the data set on mice (mice, female, intravenous) came to 239.4 mg/kg; in the data set “in vivo”, 285 mg/kg.
`CC(C)NCC(O)COc1cccc2ccccc12` (centres unmarked) [Compound 4, 1-(isopropylamino)-3-(1-naphthyloxy)-2-propanol]: the “receptor blocking profile, in words” value in data set [3] is on record as “act more or less indiscriminately on both types of β-receptors”.
